From patent US4406903A, “Xanthine derivatives useful as antidepressives” (John Wyeth and Brother Limited, priority 1981, dated 1983) come the findings set out here.

One assay has as its system L-noradrenaline reuptake. Briefly: Inhibition of L-noradrenaline reuptake in rat cortical synaptosomes (Procedure 2). The following applies: 10^-7 M 3H-L-noradrenaline, 37° C., 4 min, pH 7.4, read-out: NA Uptake IC50. It is filed as biochemical. The source says: (§1) Inhibition of 5-hydroxytryptamine and L-noradrenaline reuptake in rat cortical synaptosomes
Ref: E. G. Gray and V. P. Whittaker (1962). J. Anat 96, p 79-88.
(§2) "The isolation of nerve endings from brain: An electron microscopic study of cell fragments dervied by homogenisation and centrifugation."
(§3) Test object: Purified rat cortical synaptosomes (P2 B) from 8-10 male albino rats (190-250 g).
Procedure: Rats are stunned and then killed by decapitation. The brain is quickly removed and the cortex excised essentially free of striatum and mid-brain. The tissue is then gently homogenised (10 strokes at 840 rpm) in 0.32 M sucrose. […]
Test compounds may be present in 4 to 6 concentrations depending on previous experience, but normally the range would be 10^-9 M to 10^-6 M for an active compound. The quantity of material prepared per experiment would normally be sufficient to examine the effects of 30 different treatments (e.g. 6 compounds each at 5 concentrations in triplicate). […] The radioactivity retained on the filter is determined by the addition of Instagel (10 ml) (Packard) and subsequent liquid scintillation counting to convert results into dpm. […] Percentage inhibition of uptake is calculated as [formula] where background dpm is that accumulated in a sodium-free medium. […]

Assay [1] has as its system 5-hydroxytryptamine reuptake. Briefly: Inhibition of 5-hydroxytryptamine reuptake in rat cortical synaptosomes (Procedure 2). It is filed as biochemical. As to conditions: for Selectivity Ratio (5-HT uptake over NA uptake): from IC50 values of NA and 5-HT uptake; for IC50: 10^-7 M 14C-5-hydroxytryptamine, 37° C., 4 min, pH 7.4, read-out: 5-HT Uptake IC50.
Description: as §1, §2, §3
Procedure: Rats are stunned and then killed by decapitation. The brain is quickly removed and the cortex excised essentially free of striatum and mid-brain. […] The homogenate of concentration 10% w/v in 0.32 sucrose is centrifuged at an average centrifugal force of 1000×g for 10 minutes and the supernatant is decanted and centrifuged at an average of 10000×g for 20 min to obtain the crude mitochondrial pellet (P2). […] The synaptosomes are then centrifuged in a swing-out rotor at 97 000×g average for 30 min. […] (2 ml/g original tissue). Throughout the procedure, it is essential to maintain the tissue and synaptosomes at […]. Synaptosomes should be used within three hours of preparation. A 100 μl aliquot of this synaptosomal suspension (2.5-3.0 mg protein/ml) is added to the incubation medium (900 μl) which has been preincubated at 37° C. for 5 min. […] All reagents are of `Analar` grade and glass distilled water is used.
The quantity of material prepared per experiment would normally be sufficient to examine the effects of 30 different treatments (e.g. 6 compounds each at 5 concentrations in triplicate). […] The filters are then washed with 2.4 ml incubation medium. The radioactivity retained on the filter is determined by the addition of Instagel (10 ml) (Packard) and subsequent liquid scintillation counting to convert results into dpm. The non-specific binding and passive accumulation of both amines is corrected for by determining uptake in a sodium-free medium. Percentage inhibition of uptake is calculated as [formula] where background dpm is that accumulated in a sodium-free medium.
Assays are run in triplicate, with 2 or 3 control and background determinations inserted randomly. The selectivity ratio is calculated as: [formula]

The subject of assay [2] is 5-hydroxytryptamine uptake. Put plainly: Inhibition of 5-Hydroxytryptamine Uptake in Brain Slices (Procedure 1). It counts as cell-based, rat. As to conditions: for inhibition at 0.1 µM / inhibition at 1 µM / inhibition at 10 µM: rat cerebral cortex slices, 3H 5-hydroxytryptamine 10^-7 M; for Inhibition of 5-hydroxytryptamine uptake, potency ratio compared with imipramine: IC50-based ratio versus imipramine, rat brain slices; for Potency in 5-hydroxytryptamine tests (in words, versus imipramine): qualitative comparison with the standard inhibitor imipramine. As to the method: (§4) Inhibition of 5-Hydroxytryptamine or Noradrenaline Uptake in Brain Slices
Two rates (weighing 170-200 g) are decapitated and the brains rapidly removed and placed in ice-cold Krebs solution. The cerebral cortex on each side of the median line is opened out flat and cut to give two slabs of even thickness. The slabs are weighed and then sliced on a McIlwain tissue chopper. The tissue is sliced twice, the second cutting being at an angle of 45° to the first. The interval of cutting is 0.1 mm. The slices are transferred to a 5 ml conical flask and Krebs solution is added in the proportion 5 ml/g tissue. The slices are dispersed in the solution by sucking up and down in a Pasteur pipette. When a satisfactory suspension is achieved it is pipetted in 50 μl portions into 25 ml conical flasks containing 4.5 ml chilled Krebs solution. An Eppendorf pipette with the tip cut back to about 1 mm diameter is used. The suspension is kept well mixed at this stage so that each portion taken contains the same amount of tissue (~10 mg). The flasks are gassed with 95% O2 /5% CO2 and sealed with aluminium foil. They are then placed in a water bath at 27° for 15 minutes pre-incubation.
Flasks in groups of four are then each treated by an addition in 0.5 ml. to achieve the following concentrations in the medium. […]
______________________________________
GROUP CONCENTRATION (CONCENTRATION)
A 10^-7 M TEST COMPOUND (10^-5 M)
B 10^-7 M IMIPRAMINE (10^-5 M)
C 10^-7 M IMIPRAMINE (10^-6 M)
D 10^-7 M IMIPRAMINE (10^-7 M)
After 20 minutes incubation the slices are filtered off in filter funnels connected to a vacuum line. Each flask in rinsed with 5 ml Krebs which is also poured through the filter funnel followed by a further 5 ml Krebs. For group F the treatment differs in that ^3 H 5-hydroxytryptamine in 0.5 ml is added immediately before filtration. This gives an estimation of the amount of activity retained by the filter from the solution together with the amount of non-specific binding by the tissue.
(§5) The filter papers are placed in scintillation vials and soaked in 4 ml ethanol/methanol (3:1 v/v) for at least 45 minutes before addition of 10 ml liquid scintillator after which the samples are counted in a liquid scintillation counter.
Uptake inhibition is expressed as follows: [formula] […] In this case a dose response experiment is carried out with the test compound and impramine at concentrations of 10^-5 M, 10^-6 M and 10^-7 M. The % inhibition is again calculated in the same way and the results are plotted as % inhibition against log compound concentration. The molar concentration which inhibits uptake by 50% (IC50) is determined. The potency ratio compared to imipramine is calculated as: [formula]

The next assay deals with noradrenaline uptake. Briefly: Inhibition of Noradrenaline Uptake in Brain Slices (Procedure 1). It is filed as cell-based, rat. The following applies: 3H-noradrenaline 10^-7 M; active if % inhibition at 10^-6 M is at least that of imipramine at 10^-7 M. The procedure: as §4
Two rates (weighing 170-200 g) are decapitated and the brains rapidly removed and placed in ice-cold Krebs solution. The cerebral cortex on each side of the median line is opened out flat and cut to give two slabs of even thickness. The slabs are weighed and then sliced on a McIlwain tissue chopper. The tissue is sliced twice, the second cutting being at an angle of 45° to the first. The interval of cutting is 0.1 mm. The slices are transferred to a 5 ml conical flask and Krebs solution is added in the proportion 5 ml/g tissue. The slices are dispersed in the solution by sucking up and down in a Pasteur pipette. […]
as §5
Uptake inhibition is expressed as follows: [formula] […] In this case a dose response experiment is carried out with the test compound and impramine at concentrations of 10^-5 M, 10^-6 M and 10^-7 M. The % inhibition is again calculated in the same way and the results are plotted as % inhibition against log compound concentration. […] The potency ratio compared to imipramine is calculated as: [formula] […]

Counter-ions that a name gives are not always drawn.

Turning to `CN(C)CCCN1c2ccccc2CCc2ccccc21` [imipramine, reference compound], the concentration for half-maximal inhibition (IC50) with L-noradrenaline reuptake is 50 nM. Also, in assay [1] (rat cortical synaptosomes), the “Selectivity Ratio (5-HT uptake over NA uptake)” value is 0.5 and the half-inhibitory concentration (IC50) came out at 100 nM.
Consider `Cn1c(=O)c2c(ncn2CCCNCCc2c[nH]c3ccc(O)cc23)n(C)c1=O` [Example 1, 5-hydroxy-N-[3-(theophyllin-7-yl)propyl]tryptamine hydrochloride hemihydrate], for which the half-inhibitory concentration (IC50) in the assay on L-noradrenaline reuptake is greater than 10000 nM. In assay [2], testing at 0.1 µM gave an inhibition of 44%; the inhibition at 1 µM amounted to 77%; testing at 10 µM gave an inhibition of 84%; the “Inhibition of 5-hydroxytryptamine uptake, potency ratio compared with imipramine” value is listed as 4.3. Further, the “Potency in 5-hydroxytryptamine tests (in words, versus imipramine)” value in assay [2] was “considerably more potent than imipramine”. In addition, the “Inhibition of noradrenaline uptake” value with noradrenaline uptake was “INACTIVE”. Besides, in assay [1] (rat cortical synaptosomes), the “Selectivity Ratio (5-HT uptake over NA uptake)” value is listed as greater than 167 and the concentration for half-maximal inhibition (IC50) amounted to 60 nM. The “Selectivity of action (in words)” value in assay [1] (qualitative, 5-HT versus NA uptake) is given as “very selective in its action”. The “Inhibition of 5-HT uptake (in words)” value in assay [1] (qualitative, rat cortical synaptosomes) was “very potent inhibitor of 5-HT uptake”.
For `Cn1c(=O)c2c(ncn2CCCNCCc2c[nH]c3ccccc23)n(C)c1=O` [Example 3, N-[3-theophyllin-7-yl)propyl]tryptamine hydrochloride], in assay [2], 0.1 µM produced 4% inhibition; the inhibition at 1 µM stood at 43%; the inhibition at 10 µM was 77%; the “Inhibition of 5-hydroxytryptamine uptake, potency ratio compared with imipramine” value came out at 0.8. The “Potency in 5-hydroxytryptamine tests (in words, versus imipramine)” value in assay [2] is reported as “about the same order of potency as the standard inhibitor imipramine”. Further, the “Inhibition of noradrenaline uptake” value in the assay on noradrenaline uptake is listed as “INACTIVE”.

One may read the IC50 as the point on the concentration scale where inhibition reaches its midpoint. A word on the inhibition: it is the percentage by which the read-out fell short of the control. Low readings indicate little suppression, high ones strong suppression.
